Test results as given in PMC8877448, “In Vitro and In Vivo Pharmacological Characterization of a Novel TRPM8 Inhibitor Chemotype Identified by Small-Scale Preclinical Screening” (International Journal of Molecular Sciences, 2022).
Values joined by “and” are separate entries in the source; they are usually repeats but may differ in a detail not shown here. Identical values can stand only once. Like-named read-outs stand apart in the source and are kept apart here.

Legend:
[1] = target: T1, rat isoform of TRPM8 channels (Rattus norvegicus, UniProt Q8R455); experiment: Ca2+ fluorometric assay, block of menthol-evoked responses in HEK293 cells stably expressing rTRPM8; format: cell-based; conditions: for Efficacy: percentage of inhibition of menthol evoked currents at the maximum concentration used (50 µM); for potency compared with AMTB: calcium fluorometric assay
T1 construct: expressed in transfected cells
T1 sequence (Q8R455 whole entry, canonical isoform): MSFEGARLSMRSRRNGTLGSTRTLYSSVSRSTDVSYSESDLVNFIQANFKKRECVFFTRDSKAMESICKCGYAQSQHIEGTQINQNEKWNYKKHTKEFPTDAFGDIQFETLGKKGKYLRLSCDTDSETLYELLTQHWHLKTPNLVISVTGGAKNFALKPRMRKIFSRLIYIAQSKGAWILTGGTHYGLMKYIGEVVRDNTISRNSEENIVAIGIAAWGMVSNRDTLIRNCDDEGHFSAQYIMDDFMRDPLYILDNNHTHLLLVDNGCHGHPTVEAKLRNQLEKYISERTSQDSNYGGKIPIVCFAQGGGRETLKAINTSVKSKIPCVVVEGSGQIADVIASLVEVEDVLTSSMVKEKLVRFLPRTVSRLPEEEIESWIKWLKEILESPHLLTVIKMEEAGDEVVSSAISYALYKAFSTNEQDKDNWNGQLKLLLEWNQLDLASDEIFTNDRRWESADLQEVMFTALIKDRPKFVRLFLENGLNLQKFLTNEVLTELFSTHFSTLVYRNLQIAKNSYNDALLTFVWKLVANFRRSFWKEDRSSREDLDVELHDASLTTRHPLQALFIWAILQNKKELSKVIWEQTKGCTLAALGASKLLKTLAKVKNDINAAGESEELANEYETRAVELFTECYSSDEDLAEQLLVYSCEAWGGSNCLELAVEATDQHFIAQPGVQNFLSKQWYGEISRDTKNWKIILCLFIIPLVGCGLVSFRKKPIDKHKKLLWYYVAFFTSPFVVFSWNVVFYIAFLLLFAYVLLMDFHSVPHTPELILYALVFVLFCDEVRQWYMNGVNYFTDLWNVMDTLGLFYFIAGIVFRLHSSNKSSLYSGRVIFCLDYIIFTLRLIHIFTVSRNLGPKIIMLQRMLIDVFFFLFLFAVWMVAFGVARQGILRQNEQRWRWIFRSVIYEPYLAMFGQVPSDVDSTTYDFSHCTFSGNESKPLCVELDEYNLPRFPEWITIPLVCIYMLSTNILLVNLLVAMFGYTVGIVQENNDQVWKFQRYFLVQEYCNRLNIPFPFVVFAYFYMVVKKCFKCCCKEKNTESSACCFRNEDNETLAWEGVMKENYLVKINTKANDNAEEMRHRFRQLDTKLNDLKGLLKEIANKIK
Protocol: The inhibitory activity of the 21 selected compounds over TRPM8 was challenged by Ca^2+ fluorometric assays using HEK293 cells stably expressing the rat isoform of TRPM8 channels. Menthol and AMTB were used as reference agonist and antagonist, respectively. The compounds were initially tested at three different concentrations (50 μM, 5 μM, and 0.5 μM) to assess their ability in blocking 100 μM menthol evoked currents.
(§1) Cells, HEK-293 cells stably expressing rTRPM8 or hTRPV1, were cultured in a monolayer in Earle’s minimum essential medium with Earle’s salts supplemented with 10% fetal calf serum, 1% nonessential amino acids, 2 mM L-glutamine, 100 µg streptomycin/mL, 100 U penicillin/mL, and 0.4 µg/mL puromycin (referred to as Puro-EMEM) and kept at 37 °C in a humidified atmosphere of 5% CO2 in a suitable incubator (STERI-CyCLE CO2 Incubator Hepa Class 100, Thermo Electrón Corporation, Waltham, MA, USA). Cells were stored under liquid nitrogen and used for 15 generations from unfreezing.
For fluorometric experiments, HEK-293 cells stably expressing rTRPM8 or hTRPV1 were detached by means of Trypsin/EDTA solution, resuspended in DMEM-10%FCS and seeded at a concentration of 2 × 10^4 cells/mL.
(§2) Briefly human embryonic kidney cell line (HEK) stably transfected with rTRPM8 or hTRPV1 were seeded in 96-well plates at a cell density of 30,000 cells. After 2 days the medium was replaced with 100 μL of the dye loading solution Fluo-4 NW supplemented with probenecid 2.5 mM and incubated 1 h at 37 °C. The TRP ion channel activity was measured using POLASTAR plate reader (BMG Labtech, Ortenberg, Germany) setting the excitation wavelength at 485 nm and emission wavelength at 520 nm. The baseline fluorescence was recorded for 3 cycles before the addition of the vehicle, compound at different concentrations, and the antagonist, 10 μM AMTB for TRPM8 and Ruthenium red for TRPV1. Fluorescence intensity was recorded during 7 more cycles and agonist 100 μM menthol for TRPM8 or 10 μM capsaicin for TRPV1 was added. Fluorescence intensity was recorded during 10 more cycles.
Data analysis: The Z-factor was calculated in each assay using the following equation: […]. […] A decrease in menthol signal was expressed as a percentage of inhibition (%). All data are expressed as the mean ± standard deviation (SD). Data are expressed as the concentration exerting a half-maximal inhibition of agonist-induced (Ca^2+)^i elevation (IC50), which was calculated again using GraphPad Prism® software (GraphPad Prism 5, Graphpad Software, San Diego, CA, USA). The equation used was Y = Bottom + (Top − Bottom)/(1 + 10^((LogEC50-X) ^× HillSlope)), with the restriction of the minimum (Bottom = 0). All determinations were performed in triplicate (n = 3) in 3 independent experiments (n= 3).

rTRPM8 = target: T2, rTRPM8 (Rattus norvegicus, UniProt Q8R455); experiment: Whole-cell patch-clamp on HEK-rTRPM8 cells, menthol-evoked currents; format: cell-based
T2 construct: expressed in transfected cells
T2 sequence (Q8R455 whole entry): as the sequence (Q8R455 whole entry, canonical isoform) above
Protocol: Dose-response curves were then recorded to evaluate the compound relative potencies.
Whole-cell patch-clamp recordings from HEK-rTRPM8 cells were carried out 2 days after seeding on 12-mm Ø glass coverslips treated with poly-L-lysine solution (Sigma Aldrich, Madrid, Spain); the intracellular pipette solution contained (in mM) 150 NaCl, 5 EGTA, 3 MgCl2, and 10 HEPES, adjusted to pH 7.2 with NaOH, and the extracellular solution contained (in mM) 150 NaCl, 6 CsCl, 1.5 CaCl2, 1 MgCl2, 10 D-glucose and 10 HEPES, adjusted to pH 7.4 with NaOH. The TRPM8 activity was measured by the application of two pulses of 100 μM menthol in a time interval of 2 min and 30-s perfusion of the different compound concentrations before the second menthol pulse.
The series resistance was <10 MΩ and to minimize voltage errors was compensated to 60–80%. All measurements were performed at 24–25 °C. Cell capacitance was measured and used to estimate the current density (J, pA/pF).
For the whole-cell patch-clamp experiments, results are expressed as the percentage of the remaining activation of the TRPM8 channel. This is calculated by normalizing the ratio (p2/p1) of testing conditions to the ratio (p2/p1) of the control condition. The analysis of the data was performed by GraphPad 6.0, the ordinary one-way ANOVA analysis followed by the post hoc Bonferroni test established multiple comparisons, and the ROUT method (Q = 10%) identified data outliers. […] Paired or unpaired Student’s t-tests were also used for data comparison between two groups. All data are expressed as the mean ± standard error of the mean (SEM) (n = 12–15).

[2] = test system: oxaliplatin-induced cold allodynia; experiment: Oxaliplatin-induced cold hypersensitivity, acetone drop test; format: in vivo, mice; conditions: for effect on oxaliplatin-induced cold hypersensitivity: acetone drop test
Text: TRPM8 antagonism is deeply related to analgesic in vivo effects and has been proposed as a suitable pharmacological strategy for the treatment of chronic pain, migraine, and painful syndromes. TRPM8 antagonists are particularly known to counteract the chemotherapy-induced neuropathic pain evoked by oxaliplatin [24, 27, 28, 29]. For these reasons we challenged compound 14 (BB 0322703) in vivo using the oxaliplatin-induced cold hypersensitivity assay. […]. […] In particular, a correspondence between the in vitro potency and the effective in vivo dose is typical for TRPM8 modulators in the oxaliplatin-induced neuropathic pain model. Extremely in-vitro potent compounds are effective also at lower doses […]. When in vitro potency is reduced, as also in the present case, in vivo efficacy decreases correspondingly. […] This is also the case of compound 14, which for these reasons could be considered a promising hit-compound for the development of new chemotypes as TRPM8 antagonists and a pharmacological tool for the treatment of neuropathic pain.
[…]. Care was taken to minimize the number of animals used and the pain and stress they experienced. All experimental procedures were approved by the Animal Care and Use Committees of Universidad Miguel Hernández and the regional government and were conducted according to the ethical principles of the International Association for the Study of Pain (IASP) for the evaluation of pain in conscious animals, the European Parliament and the Council Directive (2010/63/EU) and the Spanish law (RD 53/2013). Housing conditions were maintained at 21 ± 1 °C and 55 ± 15% relative humidity in a controlled light/dark cycle (light on between 8:00 a.m. and 8:00 p.m.). Animals had free access to food and water except during the habituation or the evaluation of nociceptive sensitivity. All parts of the study concerning animal care were performed under veterinary control.
Compound 14 (BB 0322703) was dissolved in 2.5% dimethyl sulfoxide (Merck, Darmstadt, Germany) and 2.5% cremophor EL (Merck) diluted in saline. […]
Oxaliplatin-induced neuropathic pain was induced by repeated oxaliplatin administration (Cat. No. 2623, Tocris, Bristol, UK). […] Nociceptive sensitivity was assessed before oxaliplatin treatment and 3 days after the last oxaliplatin administration.
Cold chemical thermal sensitivity was assessed using the acetone drop method as previously described. […] The responses were measured for 1 min with a digital stopwatch. For each measurement, the paw was sampled three times and the mean was calculated. […]
Behavioral data were analyzed with a repeated-measures ANOVA followed by a post-hoc Tukey test (GraphPad Prism 7.04, GraphPad Software Inc.). p-values lower than 0.05 were considered statistically significant.

hTRPV1 = target: T3, hTRPV1 (Homo sapiens, UniProt Q8NER1); experiment: Ca2+ fluorometric assay on HEK-293 cells stably expressing hTRPV1 (selectivity); format: cell-based
T3 construct: expressed in transfected cells
T3 sequence (Q8NER1 whole entry): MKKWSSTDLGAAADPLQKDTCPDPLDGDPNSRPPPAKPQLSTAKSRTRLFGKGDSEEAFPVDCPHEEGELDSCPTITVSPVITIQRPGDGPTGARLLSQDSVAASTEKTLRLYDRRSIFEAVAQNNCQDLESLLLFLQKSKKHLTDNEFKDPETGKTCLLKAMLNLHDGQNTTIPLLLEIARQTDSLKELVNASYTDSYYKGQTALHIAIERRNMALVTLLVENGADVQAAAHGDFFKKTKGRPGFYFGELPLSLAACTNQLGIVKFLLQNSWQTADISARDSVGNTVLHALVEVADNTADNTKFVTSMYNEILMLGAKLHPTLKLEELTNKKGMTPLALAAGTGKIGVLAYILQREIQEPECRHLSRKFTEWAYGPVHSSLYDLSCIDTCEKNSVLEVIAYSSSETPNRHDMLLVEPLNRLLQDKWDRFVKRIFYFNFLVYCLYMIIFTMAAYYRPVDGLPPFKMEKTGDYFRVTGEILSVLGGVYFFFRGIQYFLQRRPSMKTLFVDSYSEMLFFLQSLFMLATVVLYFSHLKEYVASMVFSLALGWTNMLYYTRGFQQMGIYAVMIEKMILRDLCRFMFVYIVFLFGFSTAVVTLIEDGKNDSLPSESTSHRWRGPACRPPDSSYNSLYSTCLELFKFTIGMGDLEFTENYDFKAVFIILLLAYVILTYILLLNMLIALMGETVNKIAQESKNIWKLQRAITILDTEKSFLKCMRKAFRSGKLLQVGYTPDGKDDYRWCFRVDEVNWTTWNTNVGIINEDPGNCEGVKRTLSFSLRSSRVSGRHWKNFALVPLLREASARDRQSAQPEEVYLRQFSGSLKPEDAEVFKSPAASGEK
Protocol: as §1, with “unfreezing. […]” for “unfreezing.”
as §2, with “After 2 days the medium was replaced with 100 μL of the dye loading solution Fluo-4 NW supplemented with probenecid 2.5 mM and incubated 1 h at 37 °C.” left out, “cycles. […]” for “cycles.”

Row | Compound | Efficacy [1] | IC50 [1] | potency compared with AMTB [1] | also measured
1 | Cc1cccc(COc2ccccc2C(=O)N(CCCN)Cc2cccs2)c1 [AMTB, reference compound] | 100% |  |  | IC50 ([1]; 100 μM menthol, HEK293 rTRPM8, mean ± SD of at least three independent measurements, read-out: IC50): 7.15 ± 1.24 µM
2 | NCC1CCCN(CCc2cccc(F)c2)C1 (centres unmarked) [Compound 1] | 85% | 10.2 ± 1.31 µM | comparable potencies to AMTB | 
3 | Cc1nn(C)c(Oc2ccc(Cl)cc2)c1-c1noc(C)c1C(=O)Nc1ccc(F)cc1 [Compound 5] | 95% | 11.1 ± 1.32 µM | comparable potencies to AMTB | 
4 | CCOC(=O)C(C)Nc1ccccc1C(=O)NC(C)c1ccccc1 [Compound 14, Ethyl (R)-N-[2-{[(1-Phenylethyl)amino]carbonyl}phenyl]-2-aminopropionic acid] | 100% | 0.25 ± 0.15 µM |  | IC50 (rTRPM8): 1.25 ± 0.26 µM; effect on TRPM8 menthol-evoked currents (rTRPM8; compound at 10 μM, 100 μM menthol): abolishing the TRPM8 menthol-evoked currents; Hill slope, patch-clamp inhibition (rTRPM8; fit of dose-response curve, Top = 100): −1.23; efficacy in cold allodinya model ([2]; 30 μM dose (abstract)): showing pharmacological efficacy; effect on oxaliplatin-induced cold hypersensitivity ([2]; mice, intraplantar 10 µg): did not show significant modification of their nociceptive sensitivity; duration of inhibition of cold hypersensitivity ([2]; mice, intraplantar dose of 30 µg): at least 1 h; effect on oxaliplatin-induced cold hypersensitivity ([2]; mice, intraplantar dose of 30 µg, p < 0.05 vs. Oxaliplatin): significant inhibition of this cold hypersensitivity; IC50/potency fold difference versus AMTB ([1]; calcium fluorometric IC50 compared with reference AMTB): about 30 fold
5 | COC(=O)C1=C(Nc2ccccc2F)SC(=Cc2ccccc2OCC#CC(C)(O)c2ccccn2)C1=O (centres unmarked) [Compound 19] | 90% | 5.52 ± 1.45 µM | comparable potencies to AMTB | EC50 (hTRPV1; agonist, normalized to capsaicine 10 μM = 100%, brackets 95% confidence interval, read-out: EC50 TRPV1 activation): 1.34 to 1.68 µM and 1.34 µM; Hill Slope, TRPV1 activation (hTRPV1; fit of dose-response curve, Bottom = 0): 0.67
